Legend:
[1] = tested on: A2780cisR subcutaneous tumour xenograft; assay: Efficacy in A2780cisR (A2780/cis) subcutaneous tumour xenograft model; assay type: in vivo, Female Balb/c immunodeficient nude mice; settings: 6 at 50 mg/kg, 8 at 15 mg/kg, i.p.; for Median time to RTV2 / Maximum % weight loss / Growth delay: A2780/cis xenograft, days 0–4; for Maximum % weight loss: day in brackets; for Growth delay: versus untreated
Procedure: (§1) Compounds: All compounds were provided in powdered form and stored in the −20 °C freezer. They were formulated just before use. […] The drugs were then administered within 10 minutes of initial dilution.
(§2) Animals: Female Balb/c immunodeficient nude mice aged 6–12 weeks were used (Envigo, Blackthorn, UK). Mice were kept in cages housed in isolation cabinets in an air‐conditioned room with regular alternating cycles of light and darkness. They received Teklad 2018 diet (Envigo, Blackthorn, UK) and water ad libitum. All animal procedures were carried out under a project licence issued by the UK Home Office and UK National Cancer Research Institute Guidelines for the Welfare of Animals were followed throughout.
(§3) S.c. xenograft tumours: A2780/WT and A2780/cis tumours were excised from a donor animal, placed in sterile physiological saline containing antibiotics and cut into small fragments of approximately 5 mm^3. Under brief general inhalation anaesthesia, fragments were implanted in the flank of each mouse using a trocar. Once the tumours could accurately be measured by callipers, the mice were allocated into groups (control or treated) by restricted randomisation to keep group mean tumour size variation to a minimum, with 3 animals set up per group.
(§4) Evaluation of efficacy in s.c. xenograft models: The compounds were prepared fresh on the days of treatment as described above and administered i. p. to mice on days 0–4 in a volume of 0.1 mL per 10 g of body weight. […] The negative control group was untreated.
(§5) The effects of therapy were assessed by frequent monitoring growth of the tumours and body weight. Two‐dimensional calliper measurements of the tumours were taken, and volumes calculated using the formula (a^2×b)/2, where a is the smaller and b the larger diameter of the tumour. Tumour volume was then normalised to the respective volume on day 0, and semi‐log plots of relative tumour volume (RTV) versus time were made. Mann‐Whitney U tests were performed to determine the statistical significance of any differences in growth rate (based on tumour volume doubling time, RTV2) between control and treated groups.

[2] = tested on: A2780 subcutaneous tumour xenograft; assay: Efficacy in A2780 subcutaneous tumour xenograft model; assay type: in vivo, Female Balb/c immunodeficient nude mice; settings: 6 at 50 mg/kg, 8 at 15 mg/kg, i.p.; for Maximum % weight loss / Median time to RTV2: days 0–4; for Growth delay: days 0–4, versus untreated
Procedure: as §1, §2, §3, §4, §5

A2780 cells = assay: FITC annexin-V / PI apoptosis assay by flow cytometry; assay type: cell-based, human; settings: A2780, 24 h, complexes 2×IC50, doxorubicin 0.5 µM
Source text: Annexin V‐FITC and propidium iodide (PI) have been used to distinguish between viable cells (Q1‐LL), early apoptotic cells (Q1‐LR), late apoptotic cells (Q1‐UR), and necrotic cells (Q1‐UL). […] Both complexes 6 and 8 induce apoptosis of A2780 cells and treatment with the complexes results in 99.6 % and 95.4 % of the cells in late apoptosis, respectively.
Figure 9 Flow cytometry analysis of A2780 cells exposed to complexes 6 or 8 at twice the IC50 concentration compared to a negative control. FITC reads annexin fluorescence and PE reads propidium iodide. Abbreviations: Q1‐UL=non‐viable cells; Q1‐UR=late‐stage apoptotic cells; Q1‐LR=early‐stage apoptotic cells and Q1‐LL=healthy cells.
FITC annexin‐V apoptosis assay: Flow cytometry analysis of apoptotic populations was carried out using the FITC Annexin V Apoptosis Detection Kit with PI (BioLegend®) according to manufacturer's instructions. Briefly, A2780 cells were seeded in 6‐well plates at a concentration of 1.0×10^6 cells per well and the plates were incubated for 24 h at 37 °C and a 5 % CO2 humidified atmosphere. […] Cells were then harvested using trypsin (without EDTA) and stained with PI/Annexin V‐FITC. After staining in the dark for 15 min at room temperature, cell pellets were analysed in a BD Accuri C6 Plus System flow cytometer and data was analysed using the BD Accuri C6 Plus software. These experiments were carried out in duplicate of triplicates in independent experiments; although only selected dot plots are shown, full numerical data and statistical analysis can be found in the Supporting Information.

[3] = Combined results, Average of two experiments

“(η^6‐p‐cymene)(TPPTS)Ru(Mnt) [Complex 6]” was tested, and the “Median time to RTV2” value [1] was 3.0 days, the “Maximum % weight loss” value [1] was 2% and the Growth delay [1] was 0.2 days. For the same compound, the “Maximum % weight loss” value [2] was 0%, the “Median time to RTV2” value [2] was 2.0 days and the Growth delay [2] was 0.6 days. For the same compound, the “Early apoptosis (Q1-LR)” value (A2780 cells; [3]) was 0.1%, the “Late apoptosis (Q1-UR)” value (A2780 cells; [3]) was 99.8% and the “Necrosis (Q1-UL)” value (A2780 cells; [3]) was 0.0%. The “Viable cells (Q1-LL)” value (A2780 cells; [3]) was 0.2%, the “Early apoptosis (Q1-LR)” value (A2780 cells; Experiment 1, Average) was 0.1% and the “Late apoptosis (Q1-UR)” value (A2780 cells; Experiment 1, Average) was 99.6%. For the same compound, the “Necrosis (Q1-UL)” value (A2780 cells; Experiment 1, Average) was 0.0%, the “Viable cells (Q1-LL)” value (A2780 cells; Experiment 1, Average) was 0.2% and the “Early apoptosis (Q1-LR)” value (A2780 cells; Experiment 1, Rep 1) was 0.1%. For the same compound, the “Late apoptosis (Q1-UR)” value (A2780 cells; Experiment 1, Rep 1) was 99.6%, the “Necrosis (Q1-UL)” value (A2780 cells; Experiment 1, Rep 1) was 0.0% and the “Viable cells (Q1-LL)” value (A2780 cells; Experiment 1, Rep 1) was 0.2%. The “Early apoptosis (Q1-LR)” value (A2780 cells; Experiment 1, Rep 2) was 0.1%, the “Late apoptosis (Q1-UR)” value (A2780 cells; Experiment 1, Rep 2) was 99.6% and the “Necrosis (Q1-UL)” value (A2780 cells; Experiment 1, Rep 2) was 0.0%. The “Viable cells (Q1-LL)” value (A2780 cells; Experiment 1, Rep 2) was 0.2%, the “Early apoptosis (Q1-LR)” value (A2780 cells; Experiment 1, Rep 3) was 0.2% and the “Late apoptosis (Q1-UR)” value (A2780 cells; Experiment 1, Rep 3) was 99.5%. For the same compound, the “Necrosis (Q1-UL)” value (A2780 cells; Experiment 1, Rep 3) was 0.0%, the “Viable cells (Q1-LL)” value (A2780 cells; Experiment 1, Rep 3) was 0.3% and the “Early apoptosis (Q1-LR)” value (A2780 cells; Experiment 2, Average) was 0.0%. For the same compound, the “Late apoptosis (Q1-UR)” value (A2780 cells; Experiment 2, Average) was 99.9%, the “Necrosis (Q1-UL)” value (A2780 cells; Experiment 2, Average) was 0.0% and the “Viable cells (Q1-LL)” value (A2780 cells; Experiment 2, Average) was 0.1%. For the same compound, the “Early apoptosis (Q1-LR)” value (A2780 cells; Experiment 2, Rep 1) was 0.0%, the “Late apoptosis (Q1-UR)” value (A2780 cells; Experiment 2, Rep 1) was 99.9% and the “Necrosis (Q1-UL)” value (A2780 cells; Experiment 2, Rep 1) was 0.0%. The “Viable cells (Q1-LL)” value (A2780 cells; Experiment 2, Rep 1) was 0.1%, the “Early apoptosis (Q1-LR)” value (A2780 cells; Experiment 2, Rep 2) was 0.0% and the “Late apoptosis (Q1-UR)” value (A2780 cells; Experiment 2, Rep 2) was 99.9%. The “Necrosis (Q1-UL)” value (A2780 cells; Experiment 2, Rep 2) was 0.0%, the “Viable cells (Q1-LL)” value (A2780 cells; Experiment 2, Rep 2) was 0.0% and the “Early apoptosis (Q1-LR)” value (A2780 cells; Experiment 2, Rep 3) was 0.0%. For the same compound, the “Late apoptosis (Q1-UR)” value (A2780 cells; Experiment 2, Rep 3) was 99.9%, the “Necrosis (Q1-UL)” value (A2780 cells; Experiment 2, Rep 3) was 0.0% and the “Viable cells (Q1-LL)” value (A2780 cells; Experiment 2, Rep 3) was 0.1%.
`Cc1ccc(C(C)C)cc1.N#CC1=C(C#N)[S][Ru-]([P+](c2ccccc2)(c2ccccc2)c2ccccc2)[S]1` [Complex 8, (η^6‐p‐cymene)(PPh3)Ru(Mnt)] was tested, and the “Median time to RTV2” value [1] was 10.0 days, the “Maximum % weight loss” value [1] was 2% and the Growth delay [1] was 7.2 days. For the same compound, the “Toxicity in xenograft study” value ([1]; A2780cisR xenograft) was “No toxicity was observed”, the “Toxicity in xenograft study” value [2] was “No toxicity was observed” and the “Maximum % weight loss” value [2] was 0%. The “Median time to RTV2” value [2] was 1.5 days, the Growth delay [2] was 0.1 days and the “Early apoptosis (Q1-LR)” value (A2780 cells; [3]) was 2.5%. For the same compound, the “Late apoptosis (Q1-UR)” value (A2780 cells; [3]) was 94.4%, the “Necrosis (Q1-UL)” value (A2780 cells; [3]) was 0.5% and the “Viable cells (Q1-LL)” value (A2780 cells; [3]) was 2.6%. For the same compound, the “Early apoptosis (Q1-LR)” value (A2780 cells; Experiment 1, Average) was 2.6%, the “Late apoptosis (Q1-UR)” value (A2780 cells; Experiment 1, Average) was 94.3% and the “Necrosis (Q1-UL)” value (A2780 cells; Experiment 1, Average) was 0.4%. For the same compound, the “Viable cells (Q1-LL)” value (A2780 cells; Experiment 1, Average) was 2.7%, the “Early apoptosis (Q1-LR)” value (A2780 cells; Experiment 1, Rep 1) was 2.6% and the “Late apoptosis (Q1-UR)” value (A2780 cells; Experiment 1, Rep 1) was 95.4%. For the same compound, the “Necrosis (Q1-UL)” value (A2780 cells; Experiment 1, Rep 1) was 0.3%, the “Viable cells (Q1-LL)” value (A2780 cells; Experiment 1, Rep 1) was 1.7% and the “Early apoptosis (Q1-LR)” value (A2780 cells; Experiment 1, Rep 2) was 2.2%. For the same compound, the “Late apoptosis (Q1-UR)” value (A2780 cells; Experiment 1, Rep 2) was 94.5%, the “Necrosis (Q1-UL)” value (A2780 cells; Experiment 1, Rep 2) was 0.4% and the “Viable cells (Q1-LL)” value (A2780 cells; Experiment 1, Rep 2) was 2.8%. The “Early apoptosis (Q1-LR)” value (A2780 cells; Experiment 1, Rep 3) was 3.0%, the “Late apoptosis (Q1-UR)” value (A2780 cells; Experiment 1, Rep 3) was 93.0% and the “Necrosis (Q1-UL)” value (A2780 cells; Experiment 1, Rep 3) was 0.6%. The “Viable cells (Q1-LL)” value (A2780 cells; Experiment 1, Rep 3) was 3.5%, the “Early apoptosis (Q1-LR)” value (A2780 cells; Experiment 2, Average) was 2.4% and the “Late apoptosis (Q1-UR)” value (A2780 cells; Experiment 2, Average) was 94.5%. For the same compound, the “Necrosis (Q1-UL)” value (A2780 cells; Experiment 2, Average) was 0.6%, the “Viable cells (Q1-LL)” value (A2780 cells; Experiment 2, Average) was 2.5% and the “Early apoptosis (Q1-LR)” value (A2780 cells; Experiment 2, Rep 1) was 2.0%. The “Late apoptosis (Q1-UR)” value (A2780 cells; Experiment 2, Rep 1) was 95.1%, the “Necrosis (Q1-UL)” value (A2780 cells; Experiment 2, Rep 1) was 0.6% and the “Viable cells (Q1-LL)” value (A2780 cells; Experiment 2, Rep 1) was 2.3%. For the same compound, the “Early apoptosis (Q1-LR)” value (A2780 cells; Experiment 2, Rep 2) was 2.3%, the “Late apoptosis (Q1-UR)” value (A2780 cells; Experiment 2, Rep 2) was 94.2% and the “Necrosis (Q1-UL)” value (A2780 cells; Experiment 2, Rep 2) was 0.8%. The “Viable cells (Q1-LL)” value (A2780 cells; Experiment 2, Rep 2) was 2.7%, the “Early apoptosis (Q1-LR)” value (A2780 cells; Experiment 2, Rep 3) was 2.9% and the “Late apoptosis (Q1-UR)” value (A2780 cells; Experiment 2, Rep 3) was 94.1%. For the same compound, the “Necrosis (Q1-UL)” value (A2780 cells; Experiment 2, Rep 3) was 0.5% and the “Viable cells (Q1-LL)” value (A2780 cells; Experiment 2, Rep 3) was 2.5%.

Reference: publication PMC9545474, “Anticancer Water‐Soluble Organoruthenium Complexes: Synthesis and Preclinical Evaluation” (Chembiochem, 2022)
